Like-named read-outs stand apart in the source and are kept apart here.
Columns and labels:
[1] = target: enolase; settings: cited from earlier work
[2] = Table 5, cited from earlier work
[3] = test system: ENO1-null cells (D423-MG, Gli56); experiment: Cell growth / toxicity in ENO1-null GBM cells; format: cell-based, human; settings: for growth of ENO1-null cells: doxycycline-inducible TRIPZ, D423-MG
Protocol: (§1) For crystal violet assays, 10,000 cells were seeded in a 6-well plate for each time point. At the indicated time point, cells were fixed with 10% formalin and stained with crystal violet solution for 1 hour. Dye extraction was performed using 10% acetic acid solution and absorbance was read at 590 nm. Cell titer Glo® experiments were performed as indicated by the manufacturer. 1000 cells/well were plated in a 96 well plate for each time point and luminescence readings were taken every 24 hours. All experiments were performed in triplicate.
(§2) Structure and purity were verified by NMR. […] Given the instability of the compound, media was replaced every 5 days and fresh inhibitor added with fresh media.
(§3) Cell growth of shRNA- or PhAH-treated cell lines was assayed either through crystal violet staining or using the Promega CellTiter-Glo proliferation kit (Roche) or alternatively, in vivo, by measuring confluence with the IncuCyte (Essen BioScience). Growth curves using the IncuCyte were generated by imaging every 2 hours with quadruplicate replicates. For crystal violet assays, 10^4 cells were seeded in a 6-well plate for each time point. At the indicated time point, cells were fixed with 10% formalin and stained with crystal violet solution for 1 h. Dye extraction was performed using 10% acetic acid solution, and absorbance was read at 590 nm. CellTiter-Glo experiments were performed according to the manufacturer's instructions; 10^3 cells/well were plated in a 96-well plate for each time point, and luminescence readings were taken every 24 h. All experiments were performed in triplicate. Soft agar (anchorage-independent) growth was monitored in 6-well plates seeded with 10^4 cells of the indicated genotype. The medium contained DMEM with 10% FBS; the top agar contained 0.4% low melting agarose, while the bottom agar contained 1% low melting agarose. Growth was monitored by fluorescence (GFP) and after 28 days colonies were stained with iodonitrotetrazolium chloride (Sigma-Aldrich) and counted.
Structure and purity were verified by NMR. […]

[4] = test system: enolase 2 protein; experiment: shRNA knockdown of ENO2 expression (western blot); format: cell-based, human; settings: pGIPZ vector; D423-MG and D502-MG; vs shNT
Excerpt: Two of these hairpins were in the pLKO.1 vector (ShENO2-1 and shENO2-2) and the remaining two were in the Expression Arrest GIPZ (shENO2-3) and TRIPZ (shENO2-4) shRNAmir vectors (Open Biosystems, Huntsville, Ala.). The hairpin in the GIPZ vector was cloned into the TRIPZ vector using a protocol provided by the manufacturer. The TRIPZ vector is a doxycycline inducible system with a Red fluorescent protein reporter which is only expressed upon doxycycline induction. Recombinant lentivirus was produced by transient transfection of 293T cells following a standard protocol. Briefly, 72 μg of the shRNA plasmid, 54 μg of Delta 8.9 and 18 μg of VSVG plasmids were transfected using Fugene® (Roche, Indianapolis, Ind.) into 293T cells plated in 245 mm2 dishes. Viral supernatant was collected 72 hours after transfection, concentrated by centrifugation at 23,000 rpm and resuspended in cell growth medium. For transduction, viral solutions were added to cell culture medium containing 4 μg/mL polybrene; 48 hours after infection cells were selected using 2 μg/mL puromycin and tested for ENO2 knockdown by western blot.
The hairpin in the GIPZ vector was cloned into the TRIPZ vector using a protocol provided by the manufacturer. The TRIPZ vector is a doxycycline-inducible system with a red fluorescent protein reporter that is expressed only upon doxycycline induction. […]

[5] = test system: D423-MG ENO1-null cells; experiment: Soft agar colony formation assay; format: cell-based, human; settings: vs shNT
Protocol: Anchorage-independent growth assays were performed in duplicate or triplicate in 6 well plates. 10^4 of indicated cells per well were seeded in DMEM+10% FBS containing 0.4% low-melting agarose on the top of bottom agar containing 1% low-melting agarose DMEM+10% FBS. After 14-21 days, colonies were stained with iodonitrotetrazoliumchloride (Sigma-Aldrich) and counted.
as §3, with “At the indicated time point, cells were fixed with 10% formalin and stained with crystal violet solution for 1 h.” left out, “All experiments were performed in triplicate.” left out, “The medium contained DMEM with 10% FBS; the top agar contained 0.4% low melting agarose, while the bottom agar contained 1% low melting agarose.” left out

[6] = test system: D423-MG cells; experiment: Orthotopic brain tumor formation; format: in vivo, SCID mice; settings: D423-MG injected intracranially; vs shNT
Protocol: Injection of D423-MG cells was performed as previously described (in Zheng et al., 2008) SCID mice (Charles River) aged 6-12 weeks were placed into stereotactic apparatus equipped with a Z axis (Stoelting). A hole was bored in the skull 0.5 mm anterior and 3.0 mm lateral to the bregma using a dental drill. One hundread thousand cells in Hanks Buffered Salt Solution were injected into the right caudate nucleus 3 mm below the surface of the brain using a 10-μl Hamilton syringe with an unbeveled 30 gauge needle. The scalp was closed using a 9-mm Autoclip Applier. Animals were followed daily for the development of neurological deficits.
The in vivo tumorigenic potential of D423-MG cells transduced with non-targeting hairpin or shENO2-3 delivered through pGIPZ was determined as previously described (Zheng et al., 2008). SCID mice (Charles River) under deep anesthesia were placed into a stereotactic apparatus equipped with a z axis (Stoelting). Then, 3×10^5 cells were injected intracranially into the right caudate nucleus 3 mm below the surface of the brain, using a 10-μl Hamilton syringe. The animals were followed daily for development of neurological deficits. All mice experiments were performed with the approval of the Harvard Cancer Center and Dana-Farber Cancer Institute Institutional Animal Care and Use Committee.

[7] = test system: SK-MEL-2 cells; experiment: Borrelidin growth and cytotoxicity, SK-MEL-2 (TARS Het); format: cell-based, human
Protocol: (§4) The effect of various concentrations of Borrelidin on the growth of the four melanoma cells lines over time was also studied (FIG. 21).
To this end, the inventors ran the same live growth assay, except starting with a high confluence of SK-MEL-2 cells at time zero. Under these conditions it became apparent that concentrations of Borrelidin at or above 15 nM are cytotoxic to SK-MEL-2 cells, while lower concentrations are growth inhibitory (FIG. 22).

[8] = test system: SK-MEL-5 cells; experiment: Borrelidin growth, SK-MEL-5 (TARS WT); format: cell-based, human
Excerpt: as §4

[9] = test system: HMEL cells; experiment: Borrelidin growth, HMEL (TARS WT); format: cell-based, human
Excerpt: as §4

[10] = test system: 451 Lu cells; experiment: Borrelidin growth, 451 Lu (TARS deficient); format: cell-based, human
Excerpt: as §4

[11] = test system: SK-MEL-2 cells; settings: NCI-60 database; cited from earlier work
[12] = test system: ENO1-null D423-MG cells; experiment: Relative growth with receptor tyrosine kinase inhibitors or rapamycin; format: cell-based, human; settings: combination of sorafenib, lapatinib and PHA665752
Excerpt: Given the instability of the compound, the medium was replaced every 5 days and fresh inhibitor added with fresh medium.

[13] = test system: ENO1 WT GBM cells and normal astrocytes; experiment: Cell growth / toxicity in ENO1 WT GBM cells and normal astrocytes; format: cell-based, human
Protocol: as §1, §2
(§5) Cell growth of shRNA- or PhAH-treated cell lines was assayed either through crystal violet staining or using the Promega CellTiter-Glo proliferation kit (Roche) or alternatively, in vivo, by measuring confluence with the IncuCyte (Essen BioScience). […] Dye extraction was performed using 10% acetic acid solution, and absorbance was read at 590 nm. CellTiter-Glo experiments were performed according to the manufacturer's instructions; 10^3 cells/well were plated in a 96-well plate for each time point, and luminescence readings were taken every 24 h. […] Soft agar (anchorage-independent) growth was monitored in 6-well plates seeded with 10^4 cells of the indicated genotype. […]

[14] = test system: ENO1 heterozygous cells (D502-MG and U343); experiment: Cell growth / toxicity in ENO1 heterozygous GBM cells; format: cell-based, human
Protocol: as §1, §2, §5

[15] = target: yeast enolase (Saccharomyces cerevisiae, UniProt P00924); settings: read-out: inhibitory constant on yeast enolase; Anderson et al., 1984; cited from earlier work
[16] = Table 5, published enolase inhibitors
[17] = Table 4, known enolase inhibitors
[18] = printed: SK-MEL-2 cell line, which is also wild-type for TARS

Sequence of yeast enolase (P00924 whole entry): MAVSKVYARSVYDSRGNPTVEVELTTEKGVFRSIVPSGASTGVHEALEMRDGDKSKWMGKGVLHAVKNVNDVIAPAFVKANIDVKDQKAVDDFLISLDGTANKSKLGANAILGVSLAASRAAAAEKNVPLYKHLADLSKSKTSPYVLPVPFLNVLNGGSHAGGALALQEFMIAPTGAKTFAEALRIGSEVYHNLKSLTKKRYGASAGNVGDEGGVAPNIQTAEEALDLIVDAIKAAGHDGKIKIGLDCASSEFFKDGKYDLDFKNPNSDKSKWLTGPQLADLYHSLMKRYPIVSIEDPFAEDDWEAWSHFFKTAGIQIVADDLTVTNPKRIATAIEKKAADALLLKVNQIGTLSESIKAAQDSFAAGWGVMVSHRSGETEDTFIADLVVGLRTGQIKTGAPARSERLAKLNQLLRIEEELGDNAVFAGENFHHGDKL

2-fluoro-2-phosphonoacetohydroxamate
Ki [1, 16]: 1400 nM | pKa [2]: 8.1

5′-CGGCCTTCAACGTGATCAA-3′ (expressed or natural sequence) [shENO2-3]
growth of ENO1-null cells [3]: dramatically inhibited growth | cell proliferation ([3]; pGIPZ, only in the context of ENO1 genomic deletion (D423-MG)): dramatically slowed | reduction of expression of ENO2 [4]: > 70% | soft agar colony formation [5]: dramatically decreased | in vivo tumorigenic properties [6]: dramatically decreased

5′-GGGACTGAGAACAAATCCA-3′ (expressed or natural sequence) [shENO2-4]
growth of ENO1-null cells [3]: dramatically inhibited growth

NC=C(OP(=O)(O)O)C(=O)O [3-aminoenolpyruvate-2-phosphate]
Ki [1, 17]: 100 nM | Ki [1, 16]: 100 nM

O=[N+]([O-])C(CO)CP(=O)(O)O (centres unmarked) [(3-hydroxy-2-nitropropyl)phosphonate]
Ki [1, 17]: 1 nM | Ki [1, 16]: 6 nM | pKa [2]: 8.1

O=[N+]([O-])CCP(=O)(O)O [(nitroethyl)phosphonate]
Ki [1, 17]: 1000 nM | Ki [1, 16]: 1000 nM | pKa [2]: 8.5

C[C@@H]1C[C@H](C)C[C@H](C)[C@@H](O)CC(=O)O[C@H]([C@@H]2CCC[C@H]2C(=O)O)C/C=C/C=C(/C#N)[C@H](O)[C@@H](C)C1 [Borrelidin]
effect on growth at low concentrations ([7]; SK-MEL-2): stalled the growth | lowest concentration with at least partial sensitivity ([7]; SK-MEL-2): ≥ 3.9 nM | cytotoxic concentration ([7]; SK-MEL-2, high confluence at time zero): ≥ 15 nM | concentration that completely inhibited growth ([7]; SK-MEL-2, low initial cell density): 31.25 nM | effect on growth at low concentrations ([8]; SK-MEL-5): minimal to no effect | sensitivity of growth at 62.5 nM [8, 18]: partially sensitive | sensitivity of growth at concentrations less than 31.25 nM [8, 18]: largely resistant | effect on growth at low concentrations [9]: minimal to no effect | sensitivity of growth at the highest tested concentration ([9]; 62.5 nM): resistant | concentration that nearly inhibited growth [10]: 62.5 nM | sensitivity to Borrelidin treatment [10]: intermediate sensitivity | Sensitivity to borrelidin (IC50) in a panel of cancer cell lines [11]: lowest IC50

O=CC(OP(=O)(O)O)C(=O)O [D-tartronate semialdehyde phosphate]
Ki [1, 17]: 10000 nM | Ki [1, 16]: 10000 nM

F [Fluoride]
Ki (M) [1, 17]: Varied depending | Ki (M) [1, 16]: Varied

Cc1[nH]c(/C=C2\C(=O)Nc3ccc(S(=O)(=O)Cc4c(Cl)cccc4Cl)cc32)c(C)c1C(=O)N1CCC[C@@H]1CN1CCCC1 [PHA665752]
sensitivity of ENO1-null D423-MG cells versus ENO1 WT GBM cell lines [12]: no more sensitive

O=C(CP(=O)(O)O)NO [PhAH, phosphonoacetohydroxamate]
concentration above which PhAH has more than minimal effect on growth [13]: higher than 50 μM | times lower doses for similar growth inhibition compared with normal human astrocytes [14]: about 8 times | Ki [15]: 0.015 nM | pKa ([2]; listed as Phosphonoacetohydroxamate): 10.2

CS(=O)(=O)CCNCc1ccc(-c2ccc3ncnc(Nc4ccc(OCc5cccc(F)c5)c(Cl)c4)c3c2)o1 [lapatinib]
sensitivity of ENO1-null D423-MG cells versus ENO1 WT GBM cell lines [12]: no more sensitive

CC[C@H]1/C=C/C=C/C[C@@H](C)[C@H](O)[C@@](C)(O)C(=O)[C@@H](C)[C@H](O)[C@@H](C)C(=O)[C@@H](C)[C@H](O)[C@@H](C)/C=C/C(=O)O[C@@H]2[C@H](C)[C@H](CC1)O[C@]1(CC[C@H](C)[C@H](C[C@@H](C)O)O1)[C@H]2C [oligomycin]
effect of oligomycin on its own ([14]; oligomycin 10 nM): minimal effects

d-(phosphonoethyl)nitrolate
Ki [1, 17]: 14 nM | Ki [1, 16]: 14 nM

Reference: patent US20140378529A1, “COLLATERAL GENE INACTIVATION BIOMARKERS AND TARGETS FOR CANCER THERAPY” (Board Regents, The University of Texas System, priority 2011, published 2014)
